Experimental data: patent publication US20100267803A1, “Regulators Of Fat Metabolism As Anti-Cancer Targets” (The Research Foundation of State University Of New York, priority 2008, published 2010)

What was measured:
Format in all cases: cell-based, human
[1] = test system: ERBB2 mRNA; assay: qRT-PCR of ERBB2 mRNA in BT474 cells; conditions: shRNA 48 h
Experimental: (§1) Results are shown as percentage of control. (**P=0.03). (c) BT474 cells were transfected with luciferase (control), PBP and NR1D1 shRNAs and co-transfected with GFP. Green cells were counted at intervals and expressed as percentage of control. (Error bars are s.d from 3 individual experiments; *P<0.08, **P<0.03, ***P<0.005). (d) BT474 cells were transfected with luciferase (control), PBP or NR shRNAs for 48 h. Immunofluorescence was performed for cleaved Caspase-3 signal; cell nuclei were stained with Hoechst 33243. (e) Cells from […] were counted for cleaved Caspase-3 signal. (Error bars are s.d from 3 individual experiments; ***P<0.0003). (f) BT474 cells were transfected with luciferase (control) PBP, NR1D1 or PBP and NR1D1 shRNAs together and co-transfected with GFP. Transfected cells were counted at 24 h and 72 h and the 72 h-to-24 h ratio for each shRNA was calculated and expressed as % of the control shRNA (luciferase). (Error bars are s.d from 3 individual experiments; **P=0.01, ***P<0.002). (g) Cells from (f) were counted for cleaved Caspase-3 signal. (Error bars are s.d from 3 individual experiments; ***P<0.0001). (h) ERBB2 mRNA levels of BT474 cells transfected with luciferase (control), PBP or NR1D1 shRNAs for 48 h, analyzed by qRT-PCRs. (Error bars are s.d from 3 individual experiments; ***P=0.0001).
Cell viability—apoptosis assays. […]

[2] = test system: BT474 cells; assay: Counts of GFP co-transfected BT474 cells (cell death / viability); conditions: shRNA co-transfected with GFP, counted up to 72 h
Experimental: as §1
(§2) FIG. 4 NR1D1 and PBP coordinate fatty acid metabolism in breast cancer cells. (a) BT474, MDA-MB-361, MCF-7 and HMEC cells were stained with Oil-Red O lipid and hematoxylin nuclear stains. (b) Fat stores were quantified by BODIPY 493/503 lipid probe staining (Error bars are s.d from 3 individual experiments). (c) FASN, ACLY, ACACA and FADS2 mRNA levels of BT474 cells treated with luciferase (control), PBP or NR1D1 shRNAs, or with vehicle and 20 μM of GW9662 for 48 h, analyzed by qRT-PCRs. (Error bars are s.d from 3 experiments; ***P<0.001, **P=0.005) (d) BT474 cells were transfected with FASN, ACLY and ACACA shRNAs and co-transfected with GFP. Transfected cells were counted at 24 h and 72 h and the 72h-to-24 h ratio for each shRNA was calculated and expressed as % of the control shRNA (luciferase). (Error bars are s.d from 3 individual experiments; **P<0.01, ***P<0.002). (e) BODIPY images and (f) quantification of BT474 cells transfected with luciferase (control), PBP or NR1D1 shRNAs and co-transfected with DsRed (Error bars are s.d from 3 individual experiments; ***P<0.03). Arrows indicate transfected cells.
FIG. 5. (a) MDH1 and ME1 mRNA levels of BT474 cells treated with luciferase (control), PBP or NR1D1 shRNAs for 48 h, analyzed by qRT-PCRs. (Error bars are s.d from 3 experiments; **P<0.002 (b) BT474 and MCF-7 cells were transfected with luciferase (control) MDH1 and ME1 shRNAs (Error bars are s.d from 3 individual experiments; ***P=0.0003). (c) BT474 cells) assayed for cleaved Caspase-3 signal by immunofluorescence 48 h after transfection; cell nuclei were stained with Hoechst 33243. (d) Quantification of cleaved Caspase-3 signal from cells in (c). (Error bars are s.d from 3 individual experiments; ***P<0.005). (e) Enzymes involved in fatty acid synthesis and storage that are regulated by NR1D1 and PBP and their proposed contribution to energy production necessary for survival of ERBB2-positive breast cancer cells.
Cell viability—apoptosis assays. […] At least 30 fields were imaged per single experiment. […] Immunoblotting. […] PCR reaction was run using standard conditions.

[3] = test system: BT474 cells; assay: Neutral fat stores by BODIPY 493/503 staining; conditions: first 48 h after transfection
Experimental: as §2
Metabolic assays. […] Transfected cells were monitored by co-transfecting with the pDsRed-Monomer-N1 vector (Clontech). Cells were imaged and analyzed using the In Cell Analyzer 1000—In Cell Investigator 3.4 system (GE Biosciences), as described above. […]

| Substance | mRNA levels of ERBB2 [1] | cell death / viability (cell number of transfected cells) [2] | decrease in fat stores [3] |
| --- | --- | --- | --- |
| PBP shRNA: shRNA, mature sequence CCGAGTTCCTCTTATCCTA (shRNA) | significantly decreased | time-dependent decrease of cell number | 30% |
| NR1D1 shRNA: shRNA, mature sequence GGCATGGTGTTACTGTGTA (shRNA) | no effect | time-dependent decrease of cell number | 47% |
